Measurements taken from ChEMBL document CHEMBL5036347, “Design of the naphthyl-diarylpyrimidines as potent non-nucleoside reverse transcriptase inhibitors (NNRTIs) via structure-based extension into the entrance channel” (Eur J Med Chem, 2021).
Converted amounts (≈) assume the structure as drawn.

Assays:
[1] = biological target: Human immunodeficiency virus type 1 reverse transcriptase (Human immunodeficiency virus 1, UniProt Q72547, Y181C); assay: Inhibition of HIV1 reverse transcriptase Y181C mutant using oligo(dT)16 as primer measured after 40 mins by picogreen-dye based spectrofluorimetric analysis
[2] = Cytotoxicity against human MT4 cells assessed as reduction in cell viability incubated for 5 days by MTT assay; assay type: cell-based; details: human, MT4 cells; time 5 day
[3] = test system: Human immunodeficiency virus 2; assay: Anti-HIV activity against HIV2 ROD infected in human MT4 cells assessed as reduction in virus-induced cytopathic effect incubated for 5 days by MTT assay; assay type: functional, organism-based; details: Human immunodeficiency virus 2, ROD, MT4, 120 h
[4] = test system: Human immunodeficiency virus 1; assay: Antiviral activity against HIV1 harboring reverse transcriptase K103N mutant infected in human MT4 cells assessed as protection against virus-induced cytopathic effect incubated for 5 days by MTT assay; assay type: functional, organism-based; details: Human immunodeficiency virus 1, MT4, 120 h
[5] = Resistance fold, ratio of EC50 for HIV1 harboring reverse transcriptase F227L/V106A double mutant […] to EC50 for wild type HIV1 […]; assay type: functional
[6] = Resistance fold, ratio of EC50 for HIV1 harboring reverse transcriptase Y188L mutant […] to EC50 for wild type HIV1 […]; assay type: functional
[7] = test system: Human immunodeficiency virus 1; assay: Antiviral activity against HIV1 harboring reverse transcriptase Y188L mutant infected in human MT4 cells assessed as protection against virus-induced cytopathic effect incubated for 5 days by MTT assay; assay type: functional, organism-based; details: Human immunodeficiency virus 1, MT4, 120 h
[8] = Resistance fold, ratio of EC50 for HIV1 harboring reverse transcriptase Y181C mutant […] to EC50 for wild type HIV1 […]; assay type: functional
[9] = test system: Human immunodeficiency virus 1; assay: Antiviral activity against HIV1 harboring reverse transcriptase E138K mutant infected in human MT4 cells assessed as protection against virus-induced cytopathic effect incubated for 5 days by MTT assay; assay type: functional, organism-based; details: Human immunodeficiency virus 1, MT4, 120 h
[10] = Water solubility of compound at pH 7.4 at 0.1 to 10 mg by HPLC-UV analysis; assay type: physicochemical; details: dose 0.1-10 mg
[11] = Water solubility of compound at pH 2 at 0.1 to 10 mg by HPLC-UV analysis; assay type: physicochemical; details: dose 0.1-10 mg
[12] = Water solubility of compound at pH 7 at 0.1 to 10 mg by HPLC-UV analysis; assay type: physicochemical; details: dose 0.1-10 mg
[13] = biological target: Human immunodeficiency virus type 1 reverse transcriptase (Human immunodeficiency virus 1, UniProt Q72547, Y188L); assay: Inhibition of HIV1 reverse transcriptase Y188L mutant using oligo(dT)16 as primer measured after 40 mins by picogreen-dye based spectrofluorimetric analysis
[14] = Resistance fold, ratio of EC50 for HIV1 harboring reverse transcriptase L100I mutant […] to EC50 for wild type HIV1 […]; assay type: functional
[15] = test system: Human immunodeficiency virus 1; assay: Antiviral activity against HIV1 harboring reverse transcriptase K103N/Y181C double mutant infected in human MT4 cells assessed as protection against virus-induced cytopathic effect incubated for 5 days by MTT assay; assay type: functional, organism-based; details: Human immunodeficiency virus 1, MT4, 120 h
[16] = Resistance fold, ratio of EC50 for HIV1 harboring reverse transcriptase K103N mutant […] to EC50 for wild type HIV1 […]; assay type: functional
[17] = Resistance fold, ratio of EC50 for HIV1 harboring reverse transcriptase E138K mutant […] to EC50 for wild type HIV1 […]; assay type: functional
[18] = biological target: Human immunodeficiency virus type 1 reverse transcriptase (Human immunodeficiency virus 1, UniProt Q72547, K103N); assay: Inhibition of HIV1 reverse transcriptase K103N mutant using oligo(dT)16 as primer measured after 40 mins by picogreen-dye based spectrofluorimetric analysis
[19] = test system: Human immunodeficiency virus 1; assay: Antiviral activity against HIV1 harboring reverse transcriptase Y181C mutant infected in human MT4 cells assessed as protection against virus-induced cytopathic effect incubated for 5 days by MTT assay; assay type: functional, organism-based; details: Human immunodeficiency virus 1, MT4, 120 h
[20] = biological target: Human immunodeficiency virus type 1 reverse transcriptase (Human immunodeficiency virus 1, UniProt Q72547, K103N/Y181C); assay: Inhibition of HIV1 reverse transcriptase K103N/Y181C double mutant using oligo(dT)16 as primer measured after 40 mins by picogreen-dye based spectrofluorimetric analysis
[21] = biological target: Human immunodeficiency virus type 1 reverse transcriptase (Human immunodeficiency virus 1, UniProt Q72547, L100I); assay: Inhibition of HIV1 reverse transcriptase L100I mutant using oligo(dT)16 as primer measured after 40 mins by picogreen-dye based spectrofluorimetric analysis
[22] = biological target: Human immunodeficiency virus type 1 reverse transcriptase (Human immunodeficiency virus 1, UniProt Q72547, E138K); assay: Inhibition of HIV1 reverse transcriptase E138K mutant using oligo(dT)16 as primer measured after 40 mins by picogreen-dye based spectrofluorimetric analysis
[23] = Resistance fold, ratio of EC50 for HIV1 harboring reverse transcriptase K103N/Y181C double mutant […] to EC50 for wild type HIV1 […]; assay type: functional
[24] = test system: Human immunodeficiency virus 1; assay: Antiviral activity against HIV1 harboring reverse transcriptase L100I mutant infected in human MT4 cells assessed as protection against virus-induced cytopathic effect incubated for 5 days by MTT assay; assay type: functional, organism-based; details: Human immunodeficiency virus 1, MT4, 120 h
[25] = biological target: Human immunodeficiency virus type 1 reverse transcriptase (Human immunodeficiency virus 1, UniProt Q72547); assay: Inhibition of wild type HIV1 reverse transcriptase using oligo(dT)16 as primer measured after 40 mins by picogreen-dye based spectrofluorimetric analysis
[26] = biological target: Human immunodeficiency virus type 1 reverse transcriptase (Human immunodeficiency virus 1, UniProt Q72547, F227L/V106A); assay: Inhibition of HIV1 reverse transcriptase F227L/V106A double mutant using oligo(dT)16 as primer measured after 40 mins by picogreen-dye based spectrofluorimetric analysis
[27] = test system: Human immunodeficiency virus 1; assay: Anti-HIV activity against HIV-1 IIIB infected in human MT4 cells assessed as reduction in virus-induced cytopathic effect incubated for 5 days by MTT assay; assay type: functional, organism-based; details: Human immunodeficiency virus 1, IIIB, MT4, 120 h
[28] = test system: Human immunodeficiency virus 1; assay: Antiviral activity against HIV1 harboring reverse transcriptase F227L/V106A mutant infected in human MT4 cells assessed as protection against virus-induced cytopathic effect incubated for 5 days by MTT assay; assay type: functional, organism-based; details: Human immunodeficiency virus 1, MT4, 120 h
[29] = Selectivity index, ratio of CC50 for cytotoxicity against human MT4 cells to EC50 of Anti-HIV activity against HIV-1 IIIB infected in human MT4; assay type: toxicity, cell-based; details: read-out: Selectivity Index

Compound | IC50 [1] | CC50 at 120 h [2] | EC50 [3] | EC50 [4] | Ratio EC50 [5] | Ratio EC50 [6] | EC50 [7] | Ratio EC50 [8] | EC50 [9] | Ratio EC50 [14] | EC50 [15] | Ratio EC50 [16] | Ratio EC50 [17] | EC50 [19] | Ratio EC50 [23] | EC50 [24] | IC50 [25] | EC50 [27] | EC50 [28] | selectivity ratio [29] | other results
CCNc1cc(Oc2c(OC)cc3cc(C#N)ccc3c2OC)nc(Nc2ccc(C#N)cc2)n1 | 0.16 µM | > 125 µM | > 1000 µM | 0.0088 µM | 463 | 64 | 0.58 µM | 7 | 0.016 µM | 14 | 0.42 µM | 1 | 2 | 0.061 µM | 46 | 0.13 µM | 0.06 µM | 0.0091 µM | 4.21 µM | > 30500 | solubility [10]: 9 µg/mL (≈ 19.3 µM); solubility [11]: 1 µg/mL (≈ 2.14 µM); solubility [12]: < 1 µg/mL; IC50 [13]: 2.32 µM; IC50 [18]: 0.12 µM; IC50 [20]: 0.43 µM; IC50 [21]: 1.31 µM; IC50 [22]: 0.09 µM; IC50 [26]: 1.16 µM
COc1cc2cc(C#N)ccc2c(OC)c1Oc1cc(N)nc(Nc2ccc(C#N)cc2)n1 | 0.04 µM | 19 µM | 7.28 µM | 0.0053 µM | 61 | 33 | 0.176 µM | 3 | 0.014 µM | 7 | 0.03 µM | 1 | 3 | 0.016 µM | 6 | 0.038 µM | 0.02 µM | 0.0054 µM | 0.33 µM | 3500 | solubility [10]: 1 µg/mL (≈ 2.28 µM); solubility [11]: < 1 µg/mL; solubility [12]: < 1 µg/mL; IC50 [13]: 0.15 µM; IC50 [18]: 0.04 µM; IC50 [20]: 0.06 µM; IC50 [21]: 0.07 µM; IC50 [22]: 0.02 µM; IC50 [26]: 0.12 µM
CCC(C)Nc1cc(Oc2c(OC)cc3cc(C#N)ccc3c2OC)nc(Nc2ccc(C#N)cc2)n1 (centres undefined) | – | > 125 µM | > 1000 µM | 0.42 µM | >22472 | 89 | 3.97 µM | 10 | 0.12 µM | 31 | 3.69 µM | 9 | 3 | 0.43 µM | 83 | 1.38 µM | 0.26 µM | 0.045 µM | > 1000 µM | > 5670 | –
COc1cc2cc(C#N)ccc2c(OC)c1Oc1cc(NC2CCOC2)nc(Nc2ccc(C#N)cc2)n1 (centres undefined) | – | > 125 µM | > 1000 µM | 0.028 µM | 156 | 43 | 0.56 µM | 7 | 0.047 µM | 19 | 0.64 µM | 1 | 2 | 0.085 µM | 49 | 0.23 µM | 0.18 µM | 0.013 µM | 2.01 µM | > 19000 | –
COc1cc2cc(C#N)ccc2c(OC)c1Oc1cc(NC(C)(C)C)nc(Nc2ccc(C#N)cc2)n1 | – | > 125 µM | > 1000 µM | 0.075 µM | >19231 | 125 | 6.51 µM | 12 | 0.18 µM | 36 | 28.5 µM | 1 | 4 | 0.65 µM | 548 | 1.89 µM | 0.31 µM | 0.052 µM | > 1000 µM | > 4830 | –
COc1cc2cc(C#N)ccc2c(OC)c1Oc1cc(NCC2CCOC2)nc(Nc2ccc(C#N)cc2)n1 (centres undefined) | – | > 125 µM | > 1000 µM | 0.016 µM | 410 | 35 | 0.67 µM | 9 | 0.047 µM | 22 | 0.68 µM | 1 | 2 | 0.17 µM | 36 | 0.37 µM | 0.06 µM | 0.019 µM | 7.78 µM | > 12500 | –
